Measurements taken from patent publication US20260250289A1, “BICYCLIC HETEROCYCLES AND THEIR USE AS WRN INHIBITORS” (Novartis AG, priority 2022, published 2026).
Where two headings read alike, the source gives them in different places.

Tests used:
[1] = target: T1, WRN helicase (aa N517-P1238) (Homo sapiens, UniProt Q14191); test: WRN ATPase assay (DNA dependent ATP hydrolysis, ADP-Glo); format: biochemical; details: 3 hours pre-incubation, 300 micromolar ATP, FLAP26 DNA; geometric mean of at least 2
T1 construct: The core helicase motif of the WRN protein (aa N517-P1238) was produced for this assay; His (N); ZZ (N); 3C protease cleavage site (N); made in house; host or cells: Sf21 insect cells (baculovirus; virus and BIICs made in SF9)
T1 sequence (Q14191 517-1238): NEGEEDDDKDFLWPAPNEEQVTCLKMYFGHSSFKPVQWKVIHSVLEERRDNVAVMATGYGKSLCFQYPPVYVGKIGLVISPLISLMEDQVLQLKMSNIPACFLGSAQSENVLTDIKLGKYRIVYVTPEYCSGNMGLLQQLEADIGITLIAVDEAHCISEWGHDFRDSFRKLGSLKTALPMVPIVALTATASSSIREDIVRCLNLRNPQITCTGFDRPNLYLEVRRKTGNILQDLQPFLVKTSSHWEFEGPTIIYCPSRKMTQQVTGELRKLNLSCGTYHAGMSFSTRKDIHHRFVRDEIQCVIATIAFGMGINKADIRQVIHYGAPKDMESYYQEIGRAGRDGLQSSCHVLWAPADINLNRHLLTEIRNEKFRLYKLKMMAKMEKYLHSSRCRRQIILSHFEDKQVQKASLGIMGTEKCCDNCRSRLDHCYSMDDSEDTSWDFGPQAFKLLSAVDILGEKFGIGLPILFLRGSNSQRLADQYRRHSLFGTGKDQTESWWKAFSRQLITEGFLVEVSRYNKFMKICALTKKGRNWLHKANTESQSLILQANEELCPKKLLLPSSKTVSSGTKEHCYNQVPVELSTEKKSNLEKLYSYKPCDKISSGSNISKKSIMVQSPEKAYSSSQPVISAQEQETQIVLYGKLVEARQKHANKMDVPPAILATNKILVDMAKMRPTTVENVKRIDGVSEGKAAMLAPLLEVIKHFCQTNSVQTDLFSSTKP
How it was run: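 DNA-dependent ATP hydrolysis detected as ADP by ADP-Glo luminescence, using 300 μM ATP, 0.2 nM FLAP26 substrate and 10 nM WRN aa N517-P1238 (Tris pH 7.5 buffer, 2 mM MgCl2, 50 mM NaCl). IC50s fitted from normalized duplicate half-log dilutions; reported as geometric means of at least 2 replicates.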

[2] = tested on: SW48 cells; test: Proliferation assay SW48 (CellTiterGlo); format: cell-based; details: SW48 colon carcinoma cells, 96 hours, CellTiterGlo, geometric mean of at least 2, read-out: Proliferation Assay SW48 GI50
How it was run: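 SW48 cells, 2,000/well, treated after overnight seeding with eight 3-fold compound dilutions (0.1% DMSO) for 96 hours at 37° C. Viability read as ATP by CellTiterGlo luminescence, normalised to a day-0 plate and vehicle to give % growth; GI50 is geometric mean of ≥2 independent replicates.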

[3] = tested on: DLD1-WRN-KO cells; test: Proliferation assay DLD1-WRN-KO (CellTiterGlo, off-target effects); format: cell-based; details: 96 hours, geometric mean of at least 2
How it was run: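 DLD1 cells with CRISPR knockout of WRN were exposed overnight-seeded to eight 3-fold compound dilutions (0.1% DMSO) for 96 h at 37 °C. Viability was read as ATP by CellTiterGlo luminescence against a day-0 plate, giving GI50 and residual viability at top concentration.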

CC(=O)N1CCN(c2c(C)n(CC(=O)Nc3cnc(C(F)(F)F)cc3Cl)c3nc(C4=CCOCC4)nn3c2=O)CC1 [Example 99, 2-(6-(4-acetylpiperazin-1-yl)-2-(3,6-dihydro-2H-pyran-4-yl)-5-methyl-7-oxo-[1,2,4]triazolo[1,5-a]pyrimidin-4(7H)-yl)-N-(4-chloro-6-(trifluoromethyl)pyridin-3-yl)acetamide]
IC50 [1]: 2000 nM | GI50 ([2]; Homo sapiens, SW48, 96 h): 6000 nM | GI50 [3]: > 10000 nM

Cc1c(N2CCN(C(=O)c3c(F)ccnc3O)CC2)c(=O)n2nc(C3=CCOCC3)nc2n1CC(=O)Nc1ccc(C(F)(F)F)cc1 [Example 28, 2-(2-(3,6-dihydro-2H-pyran-4-yl)-6-(4-(4-fluoro-2-hydroxynicotinoyl)piperazin-1-yl)-5-methyl-7-oxo-[1,2,4]triazolo[1,5-a]pyrimidin-4(7H)-yl)-N-(4-(trifluoromethyl)phenyl)acetamide]
IC50 [1]: 500 nM | GI50 ([2]; Homo sapiens, SW48, 96 h): > 10000 nM | GI50 [3]: > 10000 nM

CCc1c(N2CCN(C(=O)c3ncc4c(c3O)OCC4)CC2)c(=O)n2nc(C3=CCOCC3)nc2n1CC(=O)Nc1ccc(C(F)(F)F)cc1C [Example 37, 2-(2-(3,6-dihydro-2H-pyran-4-yl)-5-ethyl-6-(4-(7-hydroxy-2,3-dihydrofuro[3,2-c]pyridine-6-carbonyl)piperazin-1-yl)-7-oxo-[1,2,4]triazolo[1,5-a]pyrimidin-4(7H)-yl)-N-(2-methyl-4-(trifluoromethyl)phenyl)acetamide]
IC50 [1]: 90 nM | GI50 ([2]; Homo sapiens, SW48, 96 h): 90 nM | GI50 [3]: > 10000 nM

CCc1c(N2CCN(C(=O)C3CCOC3)CC2)c(=O)n2nc(C3=CCCCO3)nc2n1CC(=O)Nc1ccc(C(F)(F)F)cc1 (stereo not drawn) [Example 56, 2-(2-(3,4-dihydro-2H-pyran-6-yl)-5-ethyl-7-oxo-6-(4-(tetrahydrofuran-3-carbonyl)piperazin-1-yl)-[1,2,4]triazolo[1,5-a]pyrimidin-4(7H)-yl)-N-(4-(trifluoromethyl)phenyl)acetamide]
IC50 [1]: 100 nM | GI50 [2]: 1000 nM | GI50 [3]: > 10000 nM

CCc1c(N2CCN(C(=O)c3cn(C)c(=O)[nH]3)CC2)c(=O)n2nc(C3=CCCC3)nc2n1CC(=O)Nc1ccc(C(F)(F)F)cc1 [Example 52, 2-(2-(cyclopent-1-en-1-yl)-5-ethyl-6-(4-(1-methyl-2-oxo-2,3-dihydro-1H-imidazole-4-carbonyl)piperazin-1-yl)-7-oxo-[1,2,4]triazolo[1,5-a]pyrimidin-4(7H)-yl)-N-(4-(trifluoromethyl)phenyl)acetamide]
IC50 [1]: 50 nM | GI50 ([2]; Homo sapiens, SW48, 96 h): 3000 nM | GI50 [3]: > 10000 nM

CCc1c(N2CCN(C(=O)c3c(O)ccc4ncccc34)CC2)c(=O)n2nc(C3=CCOCC3)nc2n1CC(=O)Nc1ccc(C(F)(F)F)cc1C [Example 18, 2-(2-(3,6-dihydro-2H-pyran-4-yl)-5-ethyl-6-(4-(6-hydroxyquinoline-5-carbonyl)piperazin-1-yl)-7-oxo-[1,2,4]triazolo[1,5-a]pyrimidin-4(7H)-yl)-N-(2-methyl-4-(trifluoromethyl)phenyl)acetamide]
IC50 [1]: 60 nM | GI50 ([2]; Homo sapiens, SW48, 96 h): 200 nM | GI50 [3]: > 10000 nM

CC(=O)N1CCN(c2c(C)n(CC(=O)Nc3cc(F)c(C(F)(F)F)cc3Cl)c3nc(C4=CCOCC4)nn3c2=O)CC1 [Example 91, 2-(6-(4-acetylpiperazin-1-yl)-2-(3,6-dihydro-2H-pyran-4-yl)-5-methyl-7-oxo-[1,2,4]triazolo[1,5-a]pyrimidin-4(7H)-yl)-N-(2-chloro-5-fluoro-4-(trifluoromethyl)phenyl)acetamide]
IC50 [1]: 700 nM | GI50 ([2]; Homo sapiens, SW48, 96 h): 3000 nM | GI50 [3]: > 10000 nM

CON1CCN(c2nc3n(CC(=O)Nc4ccc(C(F)(F)F)cc4)c(C)c(N4CCN(C(C)=O)CC4)c(=O)n3n2)CC1 [Example 132, 2-(6-(4-acetylpiperazin-1-yl)-2-(4-methoxypiperazin-1-yl)-5-methyl-7-oxo-[1,2,4]triazolo[1,5-a]pyrimidin-4(7H)-yl)-N-(4-(trifluoromethyl)phenyl)acetamide]
IC50 [1]: 2000 nM | GI50 ([2]; Homo sapiens, SW48, 96 h): 10000 nM | GI50 [3]: > 10000 nM

Cc1c(N2CCN(C(=O)OCc3ccccc3)CC2)c(=O)n2nc(C3=CCOCC3)nc2n1CC(=O)Nc1ccc(C(F)(F)F)cc1 [Example 65, benzyl 4-(2-(3,6-dihydro-2H-pyran-4-yl)-5-methyl-7-oxo-4-(2-oxo-2-((4-(trifluoromethyl)phenyl)amino)ethyl)-4,7-dihydro-[1,2,4]triazolo[1,5-a]pyrimidin-6-yl)piperazine-1-carboxylate]
IC50 [1]: 8000 nM | GI50 ([2]; Homo sapiens, SW48, 96 h): 4000 nM | GI50 [3]: 4000 nM

Cc1c(N2CCN(C(=O)c3cc(C#N)n[nH]3)CC2)c(=O)n2nc(C3=CCOCC3)nc2n1CC(=O)Nc1ccc(C(F)(F)F)cc1 [Example 164, 2-(6-(4-(3-cyano-1H-pyrazole-5-carbonyl)piperazin-1-yl)-2-(3,6-dihydro-2H-pyran-4-yl)-5-methyl-7-oxo-[1,2,4]triazolo[1,5-a]pyrimidin-4(7H)-yl)-N-(4-(trifluoromethyl)phenyl)acetamide]
IC50 [1]: 50 nM | GI50 ([2]; Homo sapiens, SW48, 96 h): > 10000 nM | GI50 [3]: > 10000 nM

CC(=O)N1CCN(c2nc3n(CC(=O)Nc4ccc(Cl)cc4)c(C)c(N4CCN(C(=O)c5ccncc5O)CC4)c(=O)n3n2)CC1 [Example 2, 2-(2-(4-acetylpiperazin-1-yl)-6-(4-(3-hydroxyisonicotinoyl)piperazin-1-yl)-5-methyl-7-oxo-[1,2,4]triazolo[1,5-a]pyrimidin-4(7H)-yl)-N-(4-chlorophenyl)acetamide]
IC50 [1]: 300 nM | GI50 ([2]; Homo sapiens, SW48, 96 h): > 10000 nM | GI50 [3]: > 10000 nM

CCc1c(N2CCN(C(=O)c3ccnc(F)c3O)CC2)c(=O)n2nc(C3=CCOCC3)nc2n1CC(=O)Nc1ccc(C(F)(F)F)cc1Cl [Example 42, N-(2-chloro-4-(trifluoromethyl)phenyl)-2-(2-(3,6-dihydro-2H-pyran-4-yl)-5-ethyl-6-(4-(2-fluoro-3-hydroxyisonicotinoyl)piperazin-1-yl)-7-oxo-[1,2,4]triazolo[1,5-a]pyrimidin-4(7H)-yl)acetamide]
IC50 [1]: 70 nM | GI50 ([2]; Homo sapiens, SW48, 96 h): 500 nM | GI50 [3]: > 10000 nM

CC(=O)N1CCN(c2c(C)n(CC(=O)Nc3cc(F)c(C(F)F)cc3C)c3nc(C4=CCOCC4)nn3c2=O)CC1 [Example 94, 2-(6-(4-acetylpiperazin-1-yl)-2-(3,6-dihydro-2H-pyran-4-yl)-5-methyl-7-oxo-[1,2,4]triazolo[1,5-a]pyrimidin-4(7H)-yl)-N-(4-(difluoromethyl)-5-fluoro-2-methylphenyl)acetamide]
IC50 [1]: 700 nM | GI50 ([2]; Homo sapiens, SW48, 96 h): 3000 nM | GI50 [3]: > 10000 nM

CC(=O)N1CCN(c2c(C)n(CC(=O)Nc3ccc(C(F)(F)F)cc3)c3nc(-c4cnc(C)o4)nn3c2=O)CC1 [Example 135, 2-(6-(4-acetylpiperazin-1-yl)-5-methyl-2-(2-methyloxazol-5-yl)-7-oxo-[1,2,4]triazolo[1,5-a]pyrimidin-4(7H)-yl)-N-(4-(trifluoromethyl)phenyl)acetamide]
IC50 [1]: 400 nM | GI50 ([2]; Homo sapiens, SW48, 96 h): > 10000 nM | GI50 [3]: > 10000 nM

CCc1c(N2CCN(C(C)=O)CC2)c(=O)n2nc(C3=CCOCC3)nc2n1CC(=O)Nc1ccc(C(F)(F)F)cc1 [Example 54, 2-(6-(4-acetylpiperazin-1-yl)-2-(3,6-dihydro-2H-pyran-4-yl)-5-ethyl-7-oxo-[1,2,4]triazolo[1,5-a]pyrimidin-4(7H)-yl)-N-(4-(trifluoromethyl)phenyl)acetamide]
IC50 [1]: 100 nM | GI50 ([2]; Homo sapiens, SW48, 96 h): 1000 nM | GI50 [3]: > 10000 nM

COC1CC=C(c2nc3n(CC(=O)Nc4ccc(C(F)(F)F)cc4)c(C)c(N4CCN(C(C)=O)CC4)c(=O)n3n2)CC1 (stereo not drawn) [Example 107, 2-(6-(4-acetylpiperazin-1-yl)-2-(4-methoxycyclohex-1-en-1-yl)-5-methyl-7-oxo-[1,2,4]triazolo[1,5-a]pyrimidin-4(7H)-yl)-N-(4-(trifluoromethyl)phenyl)acetamide]
IC50 [1]: 200 nM | GI50 ([2]; Homo sapiens, SW48, 96 h): 3000 nM | GI50 [3]: > 10000 nM

CCc1c(N2CCN(C(C)=O)CC2)c(=O)n2nc(C3=CCOCC3)nc2n1CC(=O)Nc1ccc(C(F)(F)F)cc1Cl [Example 59, 2-(6-(4-acetylpiperazin-1-yl)-2-(3,6-dihydro-2H-pyran-4-yl)-5-ethyl-7-oxo-[1,2,4]triazolo[1,5-a]pyrimidin-4(7H)-yl)-N-(2-chloro-4-(trifluoromethyl)phenyl)acetamide]
IC50 [1]: 300 nM | GI50 ([2]; Homo sapiens, SW48, 96 h): 1000 nM | GI50 [3]: > 10000 nM

CCc1c(N2CCN(C(=O)c3ccnc(C)c3O)CC2)c(=O)n2nc(C3=CCCCO3)nc2n1CC(=O)Nc1ccc(C(F)(F)F)cc1Cl [Example 23, N-(2-chloro-4-(trifluoromethyl)phenyl)-2-(2-(3,4-dihydro-2H-pyran-6-yl)-5-ethyl-6-(4-(3-hydroxy-2-methylisonicotinoyl)piperazin-1-yl)-7-oxo-[1,2,4]triazolo[1,5-a]pyrimidin-4(7H)-yl)acetamide]
IC50 [1]: 200 nM | GI50 ([2]; Homo sapiens, SW48, 96 h): 300 nM | GI50 [3]: > 10000 nM
